Reference: patent publication EP0603160A2, “Compositions for in-situ active compound assembly” (SCRIPPS CLINIC AND RESEARCH FOUNDATION, priority 1986, dated 1988)
Read-outs that look alike come from different tables or passages of the source.

Experiments:
human erythrocytes = assay: Erythrocyte lysis (light scattering, hemoglobin release, cell counts); format: cell-based
Procedure: The putative product shown in Reaction Scheme 1 is evidently cytotoxic, since a suspension of human erythrocytes in a solution containing both CHD and DAPG in phosphate buffered saline is 95% lysed or aggregated within 1-14 hours under physiological conditions (the precise time depending on the concentrations) whereas erythrocytes are stable for at least 24 hours in plain PBS, and also in solutions containing either DAPG or CHD alone. In addition, when erythrocytes are incubated with mixtures of CHD and DAPG, a substantial induction period is observed during which no lysis or aggregation occurs, due to the time lag in formation of the cytotoxic material. Whether lysis or aggregation results depends on relative concentration; excess CHD results in lysis, equimolar concentrations in aggregation. The cytotoxicity may be due to the formation of the polycation, analogous to the known antitumor activity of poly-(L-lysine); Arnold, L. J. Proc. Natl Acad Sci (supra).
For erythrocytes blood was collected and stored with KEDTA at 4°C and erythrocytes prepared within 48 hours by centrifuging three times in phosphate-buffered saline (PBS, pH 7.4). Suspensions containing 3 x 10⁷ cells/ml were prepared in PBS containing 1% EtOH, but no […] cations, and incubated at 37°C with the compounds or mixtures to be tested.
On the other hand, while a mixture of 28 µM AOG and 28 µM decanal (reagent grade, Aldrich Chemical Co.) results in less than 10% lysis within the same 20 minute time frame, as the time of incubation increases, lysis increases also, as indicated by hemoglobin release measured by (1) light absorption of the supernatant at 400 nm. (2) decrease of light scattering by the cells at 700 nm, and (3) direct cell counts using a microscope. […] Suspensions of 3.5 x 10⁷ cells/ml prepared as above in PBS (1% EtOH, no divalent cations, pH 7.4) were incubated at 37°C, and cell lysis was followed by observing the decrease in absorbance at 700 nm. For 0% lysis, A₇₀₀ is 1.0; 0.2 for 100% lysis).
The curves were calculated using a nonlinear least squares fitting algorithm (Arc, H, et al, Statistical Methods (1970) Harper & Row, pp. 100-111) and based on a modified Hill equation (Cantor, C.R. et al, supra) wherein percent hemolysis is calculated as 100% divided by (1+(K/C))^α [formula] . In this equation, K is the median effect concentration, C is the concentration of DIOG (or of decanal and AOG), and α is the Hill constant.

Ox blood erythrocytes = assay: Erythrocyte killing with or without 1% serum, light scattering; format: cell-based; conditions: for mortality at 1.4 µM / mortality at 2 µM / mortality at 2.8 µM / mortality at 4 µM / mortality at 5.6 µM / mortality at 8 µM / mortality at 11.2 µM / mortality at 16 µM / mortality at 22.4 µM / mortality at 32 µM / mortality at 1 µM: Bos taurus, Erythrocyte, 1 h; for mortality at 1.4 µM: DIOG 1.4 µM; for mortality at 2.8 µM: DIOG 2.8 µM; for mortality at 4 µM: DIOG 4 µM; for mortality at 5.6 µM: DIOG 5.6 µM; for mortality at 11.2 µM: DIOG 11.2 µM; for mortality at 22.4 µM: DIOG 22.4 µM; for mortality at 32 µM: DIOG 32 µM; for mortality at 1 µM: DIOG 1 µM
Procedure: Ox blood erythrocytes were incubated for one hour in PBS at pH 6.6 in the presence or absence of 1% serum at 37°C. […] However, at 4-16 µM DIOG, the percentage of cells killed increased from 4.3 to 60.9. On the other hand, in the absence of serum, 7.2.% cells were killed even without the addition of DIOG, and a steady increase in killing occurred as the DIOG concentration increased, reaching 100% of cells killed at 8 µM.
The AOG concentration was maintained at a high level (448 µM) and the decanal concentration varied from 0-16 µM corresponding the previous DIOG concentration range. In this protocol, similar results were obtained for cells incubated in the absence of serum, but in the presence of 1% serum the curve was slightly displaced so that the cells appeared more protected as shown in Table 4.

[1] = pH 6.6, similar experiment (Table 3), read-out: % Cells Killed (0% Serum)
[2] = pH 6.6, similar experiment (Table 3), read-out: % Cells Killed (1% Serum)
[3] = one hour, PBS pH 6.6, 37°C (second Table 2), read-out: % cells killed (0% serum)
[4] = one hour, PBS pH 6.6, 37°C (second Table 2), read-out: % cells killed (1% serum)

EC50 (human erythrocytes; Erythrocyte, hemoglobin release from human erythrocytes, absorption at 400 nm, modified Hill equation fit, Figure 4, read-out: median effect concentration): 6.2 µM
SMILES: CCCCCCCCCC=NNC(=N)NCCCCCCCC [DIOG, N-1-decylidenimino-N'-octylguanidine]
lysis (human erythrocytes; 14 µM DIOG previously prepared, in 20 minutes, 37°C): complete lysis
mortality at 1.4 µM (Ox blood erythrocytes; [1]): 1.3%
mortality at 1.4 µM (Ox blood erythrocytes; [2]): 0%
mortality at 2 µM (Ox blood erythrocytes; pH 6.6, DIOG 2 µM, similar experiment (Table 3), read-out: % Cells Killed (0% Serum)): 17.9%
mortality at 2 µM (Ox blood erythrocytes; pH 6.6, DIOG 2 µM, similar experiment (Table 3), read-out: % Cells Killed (1% Serum)): 5.1%
mortality at 2.8 µM (Ox blood erythrocytes; [1]): 17.9%
mortality at 2.8 µM (Ox blood erythrocytes; [2]): 9%
mortality at 4 µM (Ox blood erythrocytes; [1]): 48.7%
mortality at 4 µM (Ox blood erythrocytes; [2]): 11.5%
mortality at 5.6 µM (Ox blood erythrocytes; [1]): 91%
mortality at 5.6 µM (Ox blood erythrocytes; [2]): 16.7%
mortality at 8 µM (Ox blood erythrocytes; pH 6.6, DIOG 8 µM, similar experiment (Table 3), read-out: % Cells Killed (0% Serum)): 100%
mortality at 8 µM (Ox blood erythrocytes; pH 6.6, DIOG 8 µM, similar experiment (Table 3), read-out: % Cells Killed (1% Serum)): 35.9%
mortality at 11.2 µM (Ox blood erythrocytes; [1]): 100%
mortality at 11.2 µM (Ox blood erythrocytes; [2]): 37.2%
mortality at 16 µM (Ox blood erythrocytes; pH 6.6, DIOG 16 µM, similar experiment (Table 3), read-out: % Cells Killed (0% Serum)): 100%
mortality at 16 µM (Ox blood erythrocytes; pH 6.6, DIOG 16 µM, similar experiment (Table 3), read-out: % Cells Killed (1% Serum)): 51.3%
mortality at 22.4 µM (Ox blood erythrocytes; [1]): 100%
mortality at 22.4 µM (Ox blood erythrocytes; [2]): 100%
mortality at 32 µM (Ox blood erythrocytes; [1]): 100%
mortality at 32 µM (Ox blood erythrocytes; [2]): 98.7%
mortality at 1 µM (Ox blood erythrocytes; [3]): 10.1%
mortality at 1 µM (Ox blood erythrocytes; [4]): 0%
mortality at 2 µM (Ox blood erythrocytes; DIOG 2 µM, one hour, PBS pH 6.6, 37°C (second Table 2), read-out: % cells killed (0% serum)): 29%
mortality at 2 µM (Ox blood erythrocytes; DIOG 2 µM, one hour, PBS pH 6.6, 37°C (second Table 2), read-out: % cells killed (1% serum)): 0%
mortality at 4 µM (Ox blood erythrocytes; [3]): 47.8%
mortality at 4 µM (Ox blood erythrocytes; [4]): 4.3%
mortality at 8 µM (Ox blood erythrocytes; DIOG 8 µM, one hour, PBS pH 6.6, 37°C (second Table 2), read-out: % cells killed (0% serum)): 100%
mortality at 8 µM (Ox blood erythrocytes; DIOG 8 µM, one hour, PBS pH 6.6, 37°C (second Table 2), read-out: % cells killed (1% serum)): 29%
mortality at 16 µM (Ox blood erythrocytes; DIOG 16µM, one hour, PBS pH 6.6, 37°C (second Table 2), read-out: % cells killed (0% serum)): 100%
mortality at 16 µM (Ox blood erythrocytes; DIOG 16µM, one hour, PBS pH 6.6, 37°C (second Table 2), read-out: % cells killed (1% serum)): 60.9%
% cells killed (1% serum) (Ox blood erythrocytes; DIOG 2 µM, one hour, PBS pH 6.6, 37°C (second Table 2)): no cell killing
% cells killed (0% serum) (Ox blood erythrocytes; DIOG 8 µM, one hour, PBS pH 6.6, 37°C (second Table 2), 60 min): 100%
